# From article PMC9223764, “In Vitro Selection and Characterization of HIV-1 Variants with Increased Resistance to LP-40, Enfuvirtide-Based Lipopeptide Inhibitor” (International Journal of Molecular Sciences, 2022)
# Like-named read-outs stand apart in the source and are kept apart here. Where a SMILES comes first, the peptide text is derived from it. The star is where a group is joined. Palmitoyl = CCCCCCCCCCCCCCCC(=O)*
# Assays:
# NL4-3D36G virus = details: single infection inhibition experiment; cited from earlier work
# Experimental: However, it requires frequent and high doses (90 mg, twice a day), and resistance is easily acquired. The TRM of the T20 carboxy-terminal, also known as the MPER (membrane proximal external region), is rich in […] sequences ([…]). Therefore, it is highly hydrophobic (Figure 1).
# [1] = system: HIV-1 NL4-3 gp41 I69V pseudovirus; assay type: cell-based; details: for Fold change in IC50: I69V relative to WT NL4-3
# HIV-1 NL4-3 = experiment: In vitro selection of resistant virus, dose-escalating passages in C8166 cells; assay type: cell-based; details: 1.5- to 2-fold increase per passage, start 0.5 µM T20, 0.04 µM LP-40
# Experimental: To determine the resistance profile of LP-40, LP-40-resistant variants were selected using a dose-escalating method. The selection for drug-resistant HIV-1NL4-3 commenced with a concentration of 0.04 µM LP-40 (Figure 2B). Finally, after 32 passages, the induced concentration of LP-40 reached 200 µM. […] As shown in passage 9 (P-9), the concentration of LP-40 was 0.3 µM, and it can be observed that isoleucine was replaced by threonine at position 37 in the gp41 NHR coding region (I37T). G86D and C87Y were observed; at position 119 (E 119 G) in the gp41 CHR coding region, glutamate was replaced by glycine; at position 126 (N 126 K), asparagine was replaced by lysine. In P-24, the concentration of LP-40 was 8 µM; I37T in the NHR coding region was still present, and A15V, A21T, and L57H were also present, and N126K at position 126 in the CHR coding region was still present. In P-26, the concentration of LP-40 was 20 µM; at L33S, position 33 in the NHR coding region, leucine was replaced by serine and I37T remained. Additionally, a combination of mutations—E109N, N113D, E119Q, D121E, N125E, S129D, H132Y, and S133N (abbreviated as […])—appeared in the coding region of CHR. At a concentration of 200 µM, in addition to L33S and I37T, D36G, V38A, V38T, N42T, and I69V appeared in the NHR coding region, and a combination of the above eight mutations still existed in the CHR coding region. […]
smiles,measurement,setting,value
CCCCCCCCCCCCCCCC(=O)NCCCC[C@H](NC(=O)[C@H](CC(=O)O)NC(=O)[C@H](CC(C)C)NC(=O)[C@H](CCC(=O)O)NC(=O)[C@H](CC(C)C)NC(=O)[C@H](CC(C)C)NC(=O)[C@H](CCC(=O)O)NC(=O)[C@H](CCC(N)=O)NC(=O)[C@H](CCC(=O)O)NC(=O)[C@H](CC(N)=O)NC(=O)[C@H](CCCCN)NC(=O)[C@H](CCC(=O)O)NC(=O)[C@H](CCC(N)=O)NC(=O)[C@H](CCC(N)=O)NC(=O)[C@H](CC(N)=O)NC(=O)[C@H](CCC(N)=O)NC(=O)[C@H](CO)NC(=O)[C@H](CCC(=O)O)NC(=O)[C@H](CCC(=O)O)NC(=O)[C@@H](NC(=O)[C@H](CC(C)C)NC(=O)[C@H](CO)NC(=O)[C@H](Cc1c[nH]cn1)NC(=O)[C@@H](NC(=O)[C@H](CC(C)C)NC(=O)[C@H](CO)NC(=O)[C@@H](NC(=O)[C@H](Cc1ccc(O)cc1)NC(C)=O)[C@@H](C)O)[C@@H](C)CC)[C@@H](C)CC)C(N)=O [LP-40] (Ac-YTSLIHSLIEESQNQQEKNEQELLELDK(Palmitoyl)-NH2),Improvement of antiviral IC50 compared to T20,NL4-3D36G virus,approximately seven-fold
same,Fold change in IC50,[1]; Table 2,0.93 fold
same,Fold change in IC50,[1]; Table 3,1.08 fold
same,IC50,"[1]; I69V, Table 2, TZM-bl cells, 48 h, luciferase, mean ± SD, triplicate, repeated three times",29.4 ± 4.59 nM
same,Induced inhibitor concentration reached after 32 passages,HIV-1 NL4-3,200 µM
